pKi: −log10 of the molar value. Where a name gives a salt, the structure may show the parent alone. Read-outs that look alike come from different tables or passages of the source.
Columns and labels:
S1R = conditions: cited from earlier work
[1] = target: empopamil binding protein (EBP); design: method as in PMID 11377189; conditions: cited from earlier work
Kappa opioid receptor = target: Kappa opioid receptor; design: method as in PMID 16125682; conditions: cited from earlier work
human lymphoblasts [2] = conditions: 5 μM pretreatment 24 h; H2O2 0.1 mM 6 h; p < 0.0001
Experimental: (§1) ROS levels were quantified by co-staining with CellRox and DAPI. (a) Representative image and (b) quantification. […] Data is the mean ± SEM. *p < 0.05, ***p < 0.001, ****p < 0.0001 by two-way ANOVA with a Tukey’s multiple comparisons in (b), by non-parametric Mann–Whitney in (d), or Kruskal–Wallis test in (c) and (e). Full-length blots are presented in Supplementary Fig. 2.
(§2) Lymphoblasts (Corriel Institute, GM02174) were grown in RPMI medium containing 10% FBS, 2 mM L-glutamax, and 100 U/mL penicillin–streptomycin and passaged every 5–6 days. […] S1R knockdown was achieved using S1R-directed siRNA duplexes (Origene, cat no: SR426072). Transfection with Polyplus JETPRIME transfection protocol was performed 48 h before experiments. S1R knockdown was assessed by immunoblot.

[3] = test system: mouse striatal neuronal cultures; conditions: 1 μM, 24 h
Experimental: Previous studies have shown a regulatory role of the S1R in mitochondrial function in retinal ganglion cells under stress[36]–[39]. […] (b) Quantification of OCR rate. […] Mitochondrial membrane potential was measured in isolated striatal mitochondria using Rhodamine123 (d) and quantified (e). […] Data are the mean ± SEM. All experiments were run in triplicates. *p < 0.05, **p < 0.01 by non-parametric Kruskal–Wallis test or Mann–Whitney test (in e).
Striatal neurons were isolated as previously described[78] from embryos at gestational day 16–17. […] Pridopidine was added for 24 h.

[4] = test system: retinal ganglion cells (RGCs); conditions: for RGC loss (%): OD vs OS eye, mean ± SEM
Experimental: Hypertonic saline injection (HSI) was performed on day 0 and day 7 into the episcleral veins of the right eye of pigmented Brown Norway rats in order to create a sustained increase of IOP.
Over the course of the study, animals were clinically evaluated daily, and IOP and body weight measured weekly (Fig. 1a).
The number of RGCs was quantified using immunofluorescent staining for the RGC marker brain-specific homeobox/POU domain protein 3A (Brn-3a), followed by image analysis. RGCs were counted in one medial and one distal area in each retinal quadrant, up to eight regions per retina (Fig. 1c, Supp Table 4). The percent of RGC loss was calculated by comparing the number of RGC counts per retina in the OD eye to that in the OS eye. […] Rats were sedated with ketamine and xylazine (40–80 and 5–10 mg/kg, respectively), kept warm and eyes moist to avoid desiccation during the procedure. Eye surface was treated with erythromycin (0.5%). On Days 0 and 7, hypertonic saline solution (250 μL, NaCl, 1.8–2.0 M) was injected into the limbal vascular plexus via different episcleral veins in the OHT eye.
Eyes were immediately enucleated following CO2 euthanasia and fixed in paraformaldehyde (PFA, 4%) at 4 °C for 24 h, then dissected in PBS. Retinas were permeabilized in PBS + 0.5% Triton X-100 for 15 min, frozen at − 80 °C for 15 min, then rinsed in PBS-0.5% Triton. […] Four radial cuts were made in the retina and it was flat-mounted. Two regions of interest (medial and distal) were acquired in each quadrant with fluorescent microscopy, and RGCs counted using ImageJ.

optic nerve axons = conditions: for Loss of optic nerve axons vs. control eye (difference): 14 days; for Number of optic nerve axons, mean: 125/55 criterion
Experimental: (§3) The laser coagulation (LC) model of experimental glaucoma was utilized in Wistar rats. Additional benefits of using this model are avoiding idiosyncratic features inherent to a single model and increasing the likelihood of future translatability to human glaucoma[28],[29]. Both models utilize elevation of IOP, but to different degrees and with different time courses. Unilateral induction of IOP elevation was performed twice, at day 0 and day 7. […] IOP was measured at baseline, and after laser photocoagulation on days 1, 4, 7, 8, and 14 (Fig. 3a). At the end of the study, RGC numbers were assessed by immunostaining (Fig. 3b).
Neuroprotective preservation of visual function in glaucoma and other optic neuropathies depends not only on preservation of cell bodies, but also on maintaining connectivity between the eye and the brain. Connectivity is preserved by protecting RGC axons[31]–[33], i.e. axoprotection. To study this, the number of optic nerve axons per optic nerve area was compared between different treatment groups (Fig. 4a,b). […] Compounds were administered daily by oral gavage. On day 14 rats were sacrificed by transcardial perfusion, first with 0.9% NaCl solution, then with 4% PFA in 0.1 M phosphate buffer, pH 7.4. Eyes and optic nerves were collected for immunohistochemical analysis.
Optic nerves were postfixed in 4% PFA (in 0.1 M phosphate buffer, pH 7.4), placed in 1% osmium, dehydrated in ascending alcohol concentrations, and placed in 1% uranyl acetate in 100% ethanol for 1 h[76],[77]. Optic nerves were embedded in epoxy resin mixture at 60 °C for 48 h and 1 µm sections prepared. Axon number was estimated using stereology, as previously described.

[5] = test system: retinal ganglion cells (RGCs); conditions: for Loss of RBPMS-positive RGCs, lasered vs control eye (difference): 14 days; for Number of RGCs per retinal area, mean: 125/55 criterion
Experimental: as §3
The number of RGCs was quantified using immunofluorescent staining for RNA-binding protein with multiple splicing (RBPMS), an RGC-specific marker, followed by stereological analysis of the entire retina[30] (Fig. 3c).
IOP was measured with a TonoLab tonometer.
Compounds were administered daily by oral gavage. On day 14 rats were sacrificed by transcardial perfusion, first with 0.9% NaCl solution, then with 4% PFA in 0.1 M phosphate buffer, pH 7.4. Eyes and optic nerves were collected for immunohistochemical analysis.
Retinal flat-mounts were immunostained with rabbit anti-RBPMS (PhosphoSolutions) and DAPI nuclear stain. Total number of RBPMS-positive cells was estimated using stereology as previously described.

striatal neurons = conditions: 1 μM, 24 h; NMDA 10 µM + glycine 20 µM 15 min; p = 0.0072
Experimental: (§4) (b) Quantification of OCR rate. […] Mitochondrial membrane potential was measured in isolated striatal mitochondria using Rhodamine123 (d) and quantified (e). […] Data are the mean ± SEM. All experiments were run in triplicates. *p < 0.05, **p < 0.01 by non-parametric Kruskal–Wallis test or Mann–Whitney test (in e).
Striatal neurons were isolated as previously described[78] from embryos at gestational day 16–17.

human lymphoblasts [6] = conditions: 5 µM, 24 h
Experimental: as §1
Mitochondrial function was then assessed with the MMP-dependent probe TMRE (tetramethylrhodamine ethyl ester).
as §2

[7] = test system: isolated striatal mitochondria; conditions: 30 mg/kg daily for 45 days; p = 0.0013
Experimental: as §4

COc1ccc(CCN2CCN(CCCc3ccccc3)CC2)cc1OC [SA4503, cutamesine dihydrochloride, reference compound]
pKi (S1R): 7.76
pKi [1]: 8.76

CC(C)=CCN1CC[C@]2(C)c3cc(O)ccc3C[C@H]1[C@H]2C [PTZ, (+)pentazocine]
pKi (Kappa opioid receptor): 8.66

CCCN1CCC(c2cccc(S(C)(=O)=O)c2)CC1 [Pridopidine]
H2O2-induced ROS production (CellRox staining) (human lymphoblasts [2]): significantly ameliorated
ATP production ([3]; p = 0.0015): significantly increases
Maximal mitochondrial respiration ([3]; p = 0.0061): significantly increases
Basal mitochondrial respiration ([3]; p = 0.0082): significantly increases
pKi (S1R): 7.24
RGC loss (%) ([4]; 3 mg/kg daily oral gavage day 1-41): 25 ± 7%
Mean RGC count/animal ([4]; 3 mg/kg, OD eye): 105.25
Mean RGC count/animal ([4]; 3 mg/kg, OS eye): 144.75
RGC loss (%) ([4]; 30 mg/kg daily oral gavage day 1-41): 21 ± 6%
Mean RGC count/animal ([4]; 30 mg/kg, OD eye): 122.78
Mean RGC count/animal ([4]; 30 mg/kg, OS eye): 158.56
RGC neuroprotection compared to vehicle control ([4]; 30 mg/kg, p = 0.019): 50%
RGC loss (%) ([4]; 60 mg/kg daily oral gavage day 1-41): 7 ± 9%
Mean RGC count/animal ([4]; 60 mg/kg, OD eye): 116.50
Mean RGC count/animal ([4]; 60 mg/kg, OS eye): 130.40
RGC neuroprotection compared to vehicle control ([4]; 60 mg/kg, p = 0.005): 83%
Axoprotection of optic nerves compared to the vehicle group (optic nerve axons; 3 mg/kg): 69%
Loss of optic nerve axons vs. control eye (difference) (optic nerve axons; 3 mg/kg daily oral, p = 0.006): 8.6%
Number of optic nerve axons, mean (optic nerve axons; 3 mg/kg, control eye): 394
Number of optic nerve axons, mean (optic nerve axons; 3 mg/kg, lasered eye): 358
Axoprotection of optic nerves compared to the vehicle group (optic nerve axons; 30 mg/kg): 45%
Loss of optic nerve axons vs. control eye (difference) (optic nerve axons; 30 mg/kg daily oral, p = 0.04): 15%
Number of optic nerve axons, mean (optic nerve axons; 30 mg/kg, control eye): 433
Number of optic nerve axons, mean (optic nerve axons; 30 mg/kg, lasered eye): 363
Axoprotection of optic nerves compared to the vehicle group (optic nerve axons; 60 mg/kg): 74%
Loss of optic nerve axons vs. control eye (difference) (optic nerve axons; 60 mg/kg daily oral, p = 0.002): 7.6%
Number of optic nerve axons, mean (optic nerve axons; 60 mg/kg, control eye): 395
Number of optic nerve axons, mean (optic nerve axons; 60 mg/kg, lasered eye): 365
Loss of RBPMS-positive RGCs, lasered vs control eye (difference) ([5]; 3 mg/kg daily oral): 5.2%
Number of RGCs per retinal area, mean ([5]; 3 mg/kg, control eye): 1404
Number of RGCs per retinal area, mean ([5]; 3 mg/kg, lasered eye): 1315
Loss of RBPMS-positive RGCs, lasered vs control eye (difference) ([5]; 30 mg/kg daily oral): 7.7%
Number of RGCs per retinal area, mean ([5]; 30 mg/kg, control eye): 1444
Number of RGCs per retinal area, mean ([5]; 30 mg/kg, lasered eye): 1336
Loss of RBPMS-positive RGCs, lasered vs control eye (difference) ([5]; 60 mg/kg daily oral): 13.9%
Number of RGCs per retinal area, mean ([5]; 60 mg/kg, control eye): 1417
Number of RGCs per retinal area, mean ([5]; 60 mg/kg, lasered eye): 1198
Mitochondrial membrane potential (MMP) after NMDA plus glycine (striatal neurons): rescues the decrease in MMP
H2O2-induced reduction of MMP (TMRE) (human lymphoblasts [6]; S1R genetically silenced with siRNA): unable to rescue MMP
H2O2-induced reduction of MMP (TMRE) (human lymphoblasts [6]; S1R-expressing cells, p = 0.0002): rescues this effect
MMP in isolated mitochondria from treated mice [7]: increase in MMP

— article PMC8578336, “Neuroprotection of retinal ganglion cells by the sigma-1 receptor agonist pridopidine in models of experimental glaucoma” (Scientific Reports, 2021)
